In ChEMBL document CHEMBL1687767, “New antiseptic peptides to protect against endotoxin-mediated shock” (Antimicrob Agents Chemother, 2010):
≈ marks a conversion by molar mass, not a printed value. Calls of active or inactive are those of the source. The rule behind the calls is not given here. Residues, ends and D or L forms follow the SMILES beside them.

Legend:
Homo sapiens [1] = species: Homo sapiens; assay: Antiinflammatory activity in human MNC assessed as inhibition of LPS-induced TNFalpha production at compound: LPS ratio of 100:1 weight percent by ELISA; type: functional
Mus musculus [2] = assay: Antisepsis activity in Salmonella enterica serovar Minnesota R60 LPS-induced C57BL/6 mouse lethal endotoxin shock model assessed as mouse survival at 12.5 ug, ip administered immediately after LPS challenge; type: functional, organism-based
Jurkat [3] = assay: Cytotoxicity against human Jurkat cells assessed as effect on respiration rate at 10 ug/ml by Chip-based Bionas system; type: cell-based
Jurkat [4] = assay: Cytotoxicity against human Jurkat cells assessed as effect on respiration rate at 100 ug/ml by Chip-based Bionas system; type: cell-based
HepG2 [5] = assay: Cytotoxicity against human HepG2 cells assessed as effect on respiration rate at 10 ug/ml by Chip-based Bionas system; type: cell-based
HepG2 [6] = assay: Cytotoxicity against human HepG2 cells assessed as effect on respiration rate at 100 ug/ml by Chip-based Bionas system; type: cell-based
[7] = Cytotoxicity against human LS 174T cells assessed as effect on respiration rate at 10 ug/ml by Chip-based Bionas system; type: cell-based; settings: ls174t
[8] = Cytotoxicity against human LS 174T cells assessed as effect on respiration rate at 100 ug/ml by Chip-based Bionas system; type: cell-based; settings: ls174t
PBMC [9] = assay: Cytotoxicity against human PBMC cells assessed as effect on respiration rate at 10 ug/ml by Chip-based Bionas system; type: cell-based
PBMC [10] = assay: Cytotoxicity against human PBMC cells assessed as effect on respiration rate at 100 ug/ml by Chip-based Bionas system; type: cell-based
HeLa [11] = assay: Cytotoxicity against human HeLa cells at 10 ug/ml by MTT assay; type: cell-based
HeLa [12] = assay: Cytotoxicity against human HeLa cells at 100 ug/ml by MTT assay; type: cell-based
HaCaT [13] = assay: Cytotoxicity against human HaCaT cells at 10 ug/ml by MTT assay; type: cell-based
HaCaT [14] = assay: Cytotoxicity against human HaCaT cells at 100 ug/ml by MTT assay; type: cell-based
[15] = Toxicity in human RBC assessed as hemolysis upto 25 ug/ml; type: cell-based; settings: erythrocyte
Mus musculus [16] = assay: Antisepsis activity in Salmonella enterica serovar Minnesota R60 LPS-induced C57BL/6 mouse lethal endotoxin shock model assessed as mouse survival at 2.5 ug, ip administered immediately after LPS challenge measured 48 hrs post LPS challenge; type: functional, organism-based
Lipopolysaccharide (LPS) = assay: Binding affinity to Salmonella enterica serovar Minnesota R60 LPS at [compound]/[LPS] ratio of 0.3 by isothermal titration calorimetry; settings: Salmonella enterica subsp. enterica serovar Minnesota
[17] = test system: Bordetella bronchiseptica; assay: Antimicrobial activity against Bordetella bronchiseptica CUN11844-99 by broth microdilution method; type: functional
Pseudomonas aeruginosa [18] = assay: Antimicrobial activity against Pseudomonas aeruginosa CUN 4158-02 by broth microdilution method; type: functional
Pseudomonas aeruginosa [19] = assay: Antimicrobial activity against Pseudomonas aeruginosa ATCC 27853 by broth microdilution method; type: functional
Escherichia coli = assay: Antimicrobial activity against Escherichia coli ATCC 25922 by broth microdilution method; type: functional
Staphylococcus aureus [20] = assay: Antimicrobial activity against Staphylococcus aureus ATCC 25923 by broth microdilution method; type: functional
Staphylococcus aureus [21] = assay: Antimicrobial activity against methicillin-resistant Staphylococcus aureus ATCC 43300 by broth microdilution method; type: functional
Staphylococcus aureus [22] = assay: Antimicrobial activity against methicillin-resistant Staphylococcus aureus CUN 3792-99 by broth microdilution method; type: functional
[23] = test system: Stenotrophomonas maltophilia; assay: Antimicrobial activity against […] Stenotrophomonas maltophilia CUN 3998-00 by broth microdilution method; type: functional
Acinetobacter baumannii = assay: Antimicrobial activity against […] Acinetobacter baumannii ATCC 19606 by broth microdilution method; type: functional
Mus musculus [24] = assay: Antisepsis activity in Pseudomonas aeruginosa LPS-induced C57BL/6 mouse lethal endotoxin shock model assessed as mouse survival at 12.5 ug, ip administered immediately after LPS challenge; type: functional, organism-based
Homo sapiens [25] = species: Homo sapiens; assay: Antiinflammatory activity in human MNC assessed as inhibition of LPS-induced TNFalpha production at compound: LPS ratio of <10:1 weight percent by ELISA; type: functional
Homo sapiens [26] = species: Homo sapiens; assay: Antiinflammatory activity in human MNC assessed as inhibition of LPS-induced TNFalpha production at compound: LPS ratio of 10:1 weight percent by ELISA; type: functional

| Compound | inhibition (Homo sapiens [1]) | Activity (Mus musculus [2]) | Activity [15] | MIC [17] | MIC (Pseudomonas aeruginosa [18]) | MIC (Pseudomonas aeruginosa [19]) | MIC (Escherichia coli) | MIC (Staphylococcus aureus [20]) | MIC (Staphylococcus aureus [21]) | MIC (Staphylococcus aureus [22]) | MIC [23] | MIC (Acinetobacter baumannii) | Activity (Mus musculus [24]) | other results |
| --- | --- | --- | --- | --- | --- | --- | --- | --- | --- | --- | --- | --- | --- | --- |
| N=C(N)NCCC[C@H](NC(=O)[C@H](Cc1ccc(O)cc1)NC(=O)[C@H](CCCCN)NC(=O)[C@H](CCCCN)NC(=O)[C@H](CS)NC(=O)CN)C(=O)N[C@@H](CCCNC(=N)N)C(=O)N[C@@H](Cc1ccccc1)C(=O)N[C@@H](CCCNC(=N)N)C(=O)N[C@@H](Cc1c[nH]c2ccccc12)C(=O)N[C@@H](CCCCN)C(=O)N[C@@H](Cc1ccccc1)C(=O)N[C@@H](CCCCN)C(=O)NCC(=O)N[C@@H](CCCCN)C(=O)N[C@@H](Cc1ccccc1)C(=O)N[C@@H](Cc1c[nH]c2ccccc12)C(=O)N[C@@H](Cc1ccccc1)C(=O)N[C@@H](Cc1c[nH]c2ccccc12)C(=O)NCC(=O)O | Active | Active | Non-toxic | – | – | – | – | – | – | – | – | – | – | Activity (Jurkat [3]): Non-toxic; Activity (Jurkat [4]): Toxic; Activity (HepG2 [5]): Non-toxic; Activity (HepG2 [6]): Toxic; Activity [7]: Non-toxic; Activity [8]: Toxic; Activity (PBMC [9]): Non-toxic; Activity (PBMC [10]): Toxic; Activity (HeLa [11]): Non-toxic; Activity (HeLa [12]): Toxic; Activity (HaCaT [13]): Non-toxic; Activity (HaCaT [14]): Toxic; Activity (Mus musculus [16]): Active; Activity (Lipopolysaccharide (LPS)): Active |
| N=C(N)NCCC[C@H](NC(=O)CNC(=O)[C@H](CCCCN)NC(=O)[C@H](CCCNC(=N)N)NC(=O)[C@H](Cc1ccccc1)NC(=O)[C@H](CCCCN)NC(=O)[C@H](Cc1c[nH]c2ccccc12)NC(=O)[C@H](CCCNC(=N)N)NC(=O)[C@H](Cc1ccccc1)NC(=O)[C@H](CCCNC(=N)N)NC(=O)[C@H](CCCNC(=N)N)NC(=O)[C@H](Cc1ccc(O)cc1)NC(=O)[C@H](CCCCN)NC(=O)[C@H](CCCCN)NC(=O)CN)C(=O)N[C@@H](Cc1ccccc1)C(=O)N[C@@H](Cc1c[nH]c2ccccc12)C(=O)N[C@@H](Cc1ccccc1)C(=O)N[C@@H](Cc1c[nH]c2ccccc12)C(=O)NCC(=O)O (H-GKKYRRFRWKFRKGRFWFWG-OH) | Active | – | – | 4 µg/mL (≈ 1.43 µM) | 32 µg/mL (≈ 11.5 µM) | 16 µg/mL (≈ 5.73 µM) | 16 µg/mL (≈ 5.73 µM) | 16 µg/mL (≈ 5.73 µM) | 16 µg/mL (≈ 5.73 µM) | 16 µg/mL (≈ 5.73 µM) | 64 µg/mL (≈ 22.9 µM) | 16 µg/mL (≈ 5.73 µM) | inactive | – |
| POLYMYXIN B | – | Active | – | – | – | – | – | – | – | – | – | – | Active | inhibition (Homo sapiens [25]): Active; inhibition (Homo sapiens [26]): Active |
| N=C(N)NCCC[C@H](NC(=O)CNC(=O)[C@H](CCCCN)NC(=O)[C@H](Cc1ccccc1)NC(=O)[C@H](CCCCN)NC(=O)[C@H](Cc1c[nH]c2ccccc12)NC(=O)[C@H](CCCNC(=N)N)NC(=O)[C@H](Cc1ccccc1)NC(=O)[C@H](CCCCN)NC(=O)[C@H](CCCCN)NC(=O)[C@H](Cc1ccc(O)cc1)NC(=O)[C@H](CCCNC(=N)N)NC(=O)[C@H](CCCNC(=N)N)NC(=O)CN)C(=O)N[C@@H](Cc1c[nH]c2ccccc12)C(=O)N[C@@H](Cc1ccccc1)C(=O)N[C@@H](Cc1c[nH]c2ccccc12)C(=O)N[C@@H](Cc1ccccc1)C(=O)NCC(=O)O (H-GRRYKKFRWKFKGRWFWFG-OH) | Active | – | Non-toxic | 128 µg/mL (≈ 48.5 µM) | 32 µg/mL (≈ 12.1 µM) | 16 µg/mL (≈ 6.07 µM) | 16 µg/mL (≈ 6.07 µM) | 8 µg/mL (≈ 3.03 µM) | 8 µg/mL (≈ 3.03 µM) | 8 µg/mL (≈ 3.03 µM) | 32 µg/mL (≈ 12.1 µM) | 16 µg/mL (≈ 6.07 µM) | inactive | – |
